A short description of this data set: RP, Waters SunFire C18, 50 × 4.6 mm, 3.5 µm, 0.5 mL/min, estimated dead time 1.1 min; A: water + 0.1% formic acid; B: acetonitrile + 0.1% formic acid; gradient (min/%B) 0/5 7/100 8/100. Conditions: stereoisomer not certain.

On to `CCCCCC(=O)Cc1cc(O)c(O)c2c1C(=O)Oc1cc(O)c(C(=O)O)c(CCCCC)c1O2`, for which the LC retention time is 6.62 min. As for `COc1cc(C)c(C(=O)Oc2cc(C)c(C(=O)O)c(O)c2)c(O)c1C`, the figure is 6.54 min. In the case of `CCCCCc1cc(OC(=O)c2c(CCCCC)cc(O)cc2OC)cc(OC)c1C(=O)O`, the LC retention time is 6.6 min. As for `O=C1C(O)=C(c2ccccc2)C(=O)C(O)=C1c1ccccc1`, the figure is 5.71 min; as for `CC(=O)C1=C(O)C=C2Oc3c(C)c(O)c(C(C)=O)c(O)c3C2(C)C1=O` (stereo not drawn), 7.45 min; as for `OCC(O)C(O)CO` (stereo not drawn), 4.05 min. In the case of `COc1c(O)c(O)c2c(c1O)C(=O)c1oc(C(C)=O)c(O)c1C2=O`, the LC retention time was 4.5 min. With `CCCCCC(=O)Cc1cc(O)cc2c1C(=O)Oc1cc(O)c(C(=O)O)c(CCCCC)c1O2`, the LC retention time was 7.13 min. As for `COc1cc(C)c(C(=O)Oc2cc(C)c(C(=O)O)c(O)c2C)c(OC)c1C`, the figure is 7.09 min. In the case of `COc1cc(OC)c2c(=O)cc(C)oc2c1C`, the LC retention time is 4.51 min. In the case of `COc1cc(C)c2c(c1C)Oc1c(cc(O)c(C(=O)O)c1C)OC2=O`, the LC retention time was 6.23 min. Take `O=C(NC(Cc1ccccc1)C(=O)O)C(=C1OC(=O)C(c2ccccc2)=C1O)c1ccccc1` (stereo not drawn): the LC retention time is 7.27 min. The figure for `COc1cc(C)c(C(=O)Oc2c(C)c(C(=O)O)c(O)c(C=O)c2O)c(O)c1C=O` is 6.37 min; for `Cc1cc(O)c2c(oc3cc(O)c(C(=O)O)c(C)c32)c1C(=O)O` it is 4.01 min.

In the case of `COc1cc2oc(C)cc(=O)c2c(O)c1COC(=O)C=C(C)CC(=O)O`, the LC retention time was 5.06 min. With `CC(=O)OC1C(Oc2cc3oc(C)cc(=O)c3c(O)c2C)OC(CO)C(O)C1O` (stereo not drawn), the LC retention time is 4 min. `O=C1c2cc(O)cc(O)c2C(=O)c2c(O)cc(CO)cc21`: the LC retention time was 4.9 min. As to `CCCc1cc(OC)cc(O)c1C(=O)O`, the LC retention time was 5.25 min.

In the case of `Cc1cc(O)c(C=O)c2c1C(=O)Oc1c(CO)c(O)c3c(c1O2)C(O)OC3=O` (stereo not drawn), the LC retention time was 4.51 min. With `Cc1cc(O)c(C=O)c2c1C(=O)Oc1c(CO)c(O)c(C(=O)O)c(C)c1O2`, the LC retention time is 5.62 min.

In the case of `CCCCCCCCCCCCCCC(C(=O)O)C(CC(=O)O)C(=O)O` (stereo not drawn), the LC retention time was 7.46 min. Turning to `COc1cc(C)c(C(=O)Oc2c(C)c(C(=O)O)c(O)c(C=O)c2O)c(O)c1C(=O)O`, the LC retention time is 5.8 min. Regarding `CCCCCc1c(Oc2cc(OC)cc3c2C(=O)OC3(O)CCCC)c(O)cc(O)c1C(=O)O` (stereo not drawn), the LC retention time was 5.81 min. On to `CC(=O)OCC1OC(Oc2cc(O)c3c(=O)cc(C)oc3c2C)C(OC(C)=O)C(OC(C)=O)C1OC(C)=O` (stereo not drawn), for which the LC retention time was 5.9 min. Turning to `CC(=O)OCc1c(O)c(C(=O)O)c(C)c2c1OC(=O)c1c(C)cc(O)c(C=O)c1O2`, the LC retention time is 7.28 min. Regarding `COC(=O)C(Cc1ccccc1)NC(=O)C(=C1OC(=O)C(c2ccccc2)=C1O)c1ccccc1` (stereo not drawn), the LC retention time is 7.65 min. As for `CCCCCC(=O)Cc1cc(OC)c(O)c2c1C(=O)Oc1cc(O)c(C(=O)O)c(CCCCC)c1O2`, the figure is 6.95 min; as for `Cc1cc(O)c2c(c1)C(=O)c1c(c(O)cc(O)c1-c1c(C)cc(O)c3c1C(=O)c1cc(O)cc(O)c1C3=O)C2=O`, 6.58 min.

The values are drawn from the RepoRT retention time repository (doi:10.1038/s41597-019-0305-1).
